These results are taken from the supplement of paper PMC11061612.

Holding throughout (assay): Bliss excess, mean over the matrix (fraction); higher = more synergy
Experiment [1] concerns HOP-92 (Non-Small Cell Lung Carcinoma). The gist of the method:
(§1)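 Bliss excess equals the observed combination effect minus the expected value EA + EB − EA·EB, where EA and EB are the effects of each agent alone. Combination Emax is the second-highest inhibition within the matrix. Inhibition was scaled from CellTiter-Glo 2.0 luminescence, with 0 set by vehicle wells and 1 by blank wells, after 72 hours of two-drug dosing of cells plated in 1536-well plates.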

Experiment [2] concerns CAL-39 (Other Solid Carcinomas). The gist of the method: as §1
The test system of experiment [3] is SNG-M (Endometrial Carcinoma). A digest of the protocol:
as §1

Experiment [4] deals with P31-FUJ (Acute Myeloid Leukemia). The gist of the method:
as §1

In experiment [5] the test system is SK-MEL-1 (Melanoma). The gist of the method: as §1
Experiment [6] deals with HCC-827 (Lung Adenocarcinoma). The gist of the method: as §1
Experiment [7] concerns MCF7 (Breast Carcinoma). The gist of the method: as §1
The subject of experiment [8] is HCC38 (Breast Carcinoma). The gist of the method:
as §1

Experiment [9] relates to CS1 (Chondrosarcoma). The gist of the method:
as §1

Experiment [10] has as its system D-283MED (Other Solid Carcinomas). A digest of the protocol: as §1
For experiment [11], the system named is HLE (Hepatocellular Carcinoma). A digest of the protocol:
as §1

For experiment [12], the system named is DOK (Oral Cavity Carcinoma). A digest of the protocol: as §1
In experiment [13] the test system is SK-UT-1 (Other Solid Carcinomas). The gist of the method:
as §1

In experiment [14] the test system is RCC10RGB (Kidney Carcinoma). The gist of the method: as §1
The test system of experiment [15] is GDM-1 (Acute Myeloid Leukemia). A digest of the protocol:
as §1

Experiment [16] concerns Saos-2 (Osteosarcoma). A digest of the protocol:
as §1

The subject of experiment [17] is NCI-H1688 (Small Cell Lung Carcinoma). A digest of the protocol: as §1
Experiment [18] deals with ETK-1 (Biliary Tract Carcinoma). The gist of the method:
as §1

Experiment [19] deals with MEG-01 (Chronic Myelogenous Leukemia). The gist of the method: as §1
Experiment [20] deals with HCC1143 (Breast Carcinoma). A digest of the protocol:
as §1

As to `NC1(C(=O)N[C@@H](CCO)c2ccc(Cl)cc2)CCN(c2ncnc3[nH]ccc23)CC1` [Capivasertib] + CC(C)n1c(=O)n(C)c2cnc3cc(F)c(-c4ccc(OCCCN5CCCCC5)nc4)cc3c21 [AZD1390] (first compound max 10 µM, 7x7, partner max 0.3 µM), the Bliss excess in [1] is -0.0238; in experiment [2], -0.0731; in [3], -0.0484; in [4], -0.169; in experiment [5], -0.0207; in [6] it was -0.0793. Moreover, the Bliss excess in experiment [7] is -0.11; in [8], -0.0314; in [9], -0.0698; in experiment [10] it was -0.0009; in experiment [11], -0.0323; in experiment [12] it was -0.0428. Moreover, the Bliss excess is -0.0017 in [13]; -0.0676 in experiment [14]; -0.0904 in experiment [15]; -0.0063 in experiment [16]; -0.044 in experiment [17]; -0.0189 in experiment [18]. The Bliss excess was -0.0245 in experiment [19] and -0.0661 in experiment [20].

In the case of `CCc1c2c(nc3ccc(O)cc13)-c1cc3c(c(=O)n1C2)COC(=O)[C@]3(O)CC` [SN-38] + O=C(c1cc(Cc2n[nH]c(=O)c3ccccc23)ccc1F)N1CCN(C(=O)C2CC2)CC1 [Olaparib] (first compound max 0.3 µM, 7x7, partner max 10 µM), the Bliss excess in [2] was 0.081; in [3], 0.0565; in experiment [4], 0.0648; in experiment [5], 0.0387; in [6], 0.052; in [7] it was 0.0115. Moreover, the Bliss excess in experiment [8] was 0.0331; in experiment [9] it was 0.0141; in experiment [10] it was 0.0174; in experiment [11], 0.0335; in experiment [12] it was 0.0284; in experiment [13], 0.057. For the same compound, the Bliss excess in experiment [16] came out at 0.0247; in experiment [17], 0.0337; in experiment [18], 0.0825; in experiment [19] it was 0.026.

Regarding `CC1(C)CCC(CN2CCN(c3ccc(C(=O)NS(=O)(=O)c4ccc(NCC5CCOCC5)c([N+](=O)[O-])c4)c(Oc4cnc5[nH]ccc5c4)c3)CC2)=C(c2ccc(Cl)cc2)C1` [Venetoclax] + COc1cc(Nc2ncc3c(n2)-c2ccc(Cl)cc2C(c2c(F)cccc2OC)=NC3)ccc1C(=O)O [Alisertib] (first compound max 1 µM, 7x7, partner max 10 µM), the Bliss excess in experiment [1] is 0.082; in [2], -0.0989; in experiment [3], -0.0189; in [4], 0.0678; in experiment [5], 0.0439; in experiment [6] it was -0.0795. The Bliss excess in experiment [7] is 0.0079; in experiment [8], -0.0184; in experiment [9], -0.0227; in experiment [10], 0.0345; in experiment [11] it was 0.0066; in experiment [12], 0.0114. For the same compound, the Bliss excess in experiment [13] was 0.0971; in [14], -0.0943; in experiment [15] it was 0.0312; in [16] it was 0.047; in experiment [17] it was 0.0566; in [18], -0.0385. Further, the Bliss excess in [19] amounted to 0.0985; in [20], 0.0244.

With `Cn1cnc2c(F)c(Nc3ccc(Br)cc3Cl)c(C(=O)NOCCO)cc21` [Selumetinib] + C=CCn1c(=O)c2cnc(Nc3ccc(N4CCN(C)CC4)cc3)nc2n1-c1cccc(C(C)(C)O)n1 [AZD1775] (first compound max 10 µM, partner max 1 µM), the Bliss excess is -0.056 in experiment [1]; 0.0116 in [2]; -0.0444 in [3]; -0.0064 in experiment [4]; 0.0121 in experiment [5]; -0.026 in [6]. Further, the Bliss excess is -0.079 in experiment [7]; -0.0768 in [8]; -0.0195 in [9]; -0.0295 in experiment [10]; -0.0358 in [11]; 0.0043 in [12]. The Bliss excess in experiment [13] was -0.0042; in [14] it was -0.0703; in experiment [15], -0.0254; in [16] it was -0.0072; in experiment [17], -0.115; in experiment [18], -0.0128. Also, the Bliss excess in experiment [19] is 0.0437; in experiment [20], -0.0112.

With `CCN(CCO)CCCOc1ccc2c(Nc3cc(CC(=O)Nc4cccc(F)c4)[nH]n3)ncnc2c1` [AZD2811] + C=CCn1c(=O)c2cnc(Nc3ccc(N4CCN(C)CC4)cc3)nc2n1-c1cccc(C(C)(C)O)n1 [AZD1775] (first compound max 1 µM, partner max 1 µM), the Bliss excess in experiment [1] is -0.0161; in experiment [2], -0.0078; in [3] it was -0.0356; in experiment [4] it was -0.0615; in experiment [5] it was -0.0323; in [6] it was 0.0272. Also, the Bliss excess was 0.0165 in [7]; -0.0672 in experiment [8]; 0.0264 in [9]; 0.0452 in experiment [10]; 0.09 in [11]; -0.0017 in [12]. In addition, the Bliss excess in [13] is 0.108; in [14] it was -0.0716; in experiment [15], -0.0484; in [16], 0.029; in [17] it was -0.006; in experiment [18] it was 0.0395. Besides, the Bliss excess in experiment [19] is -0.0323; in [20] it was 0.0147.

Regarding `CCc1c2c(nc3ccc(O)cc13)-c1cc3c(c(=O)n1C2)COC(=O)[C@]3(O)CC` [SN-38] + CN(C)CCCOc1ccc(-c2ccc3ncc4c(c3c2)n(C2CCOCC2)c(=O)n4C)cn1 [AZD0156] (first compound max 0.3 µM, 7x7, partner max 1 µM), the Bliss excess is 0.027 in experiment [1]; -0.0039 in experiment [2]; -0.0353 in experiment [3]; 0.0647 in experiment [4]; -0.0583 in [5]; 0.0556 in experiment [6]. The Bliss excess in experiment [7] was -0.0388; in experiment [8], -0.0453; in experiment [9], -0.0016; in experiment [10], -0.024; in [11], -0.0434; in experiment [12] it was 0.0323. In addition, the Bliss excess in experiment [13] is 0.0533; in experiment [14], -0.0262; in experiment [15] it was -0.0216; in experiment [16], -0.0279; in experiment [17] it was -0.0222; in experiment [18], 0.0083. In addition, the Bliss excess in experiment [19] is -0.0413; in experiment [20] it was 0.0405.

As for `Cn1cnc2c(F)c(Nc3ccc(Br)cc3Cl)c(C(=O)NOCCO)cc21` [Selumetinib] + C[C@@H]1COCCN1C2=NC(=NC(=C2)C3(CC3)[S@](=N)(=O)C)C4=C5C=CNC5=NC=C4 [AZD6738] (first compound max 10 µM, 7x7, partner max 10 µM), the Bliss excess in experiment [1] is -0.0029; in experiment [2], -0.0152; in experiment [3] it was -0.0561; in experiment [4], -0.0802; in experiment [5], -0.0312; in experiment [6], -0.0172. Also, the Bliss excess in experiment [7] was -0.0558; in experiment [8], -0.0706; in [9] it was -0.0706; in experiment [10] it was -0.0564; in experiment [11], -0.0665; in [12], 0.0628. Also, the Bliss excess in [13] was -0.0511; in [14], 0.119; in experiment [15], 0.0409; in experiment [16], -0.0349; in experiment [17], -0.0217; in [18], -0.036. Besides, the Bliss excess in experiment [19] was 0.0135; in experiment [20], -0.0207.
